US11440913B2, “Aminoimidazopyridazines as kinase inhibitors” (BRISTOL-MYERS SQUIBB COMPANY, priority 2017, dated 2022)
Where two headings read alike, the source gives them in different places.

Legend:
[1] = tested on: MLKL phosphorylation in HT29-L23 human colorectal adenocarcinoma cells; assay: MLKL Phosphorylation High-Content Assay; format: cell-based; conditions: necroptosis induced with TNFα, SMAC mimetic and Z-VAD, 6 h, read-out: pMLKL (IC50)
Procedure, shortened: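 HT29-L23 cells pretreated 30 min at 37 °C with compound (6.25 to 0.106 μM final), then necroptosis induced with TNFα 35 ng/mL, SMAC mimetic 700 nM and Z-VAD 140 nM for 6 h. Fixed cells immunostained for MLKL pS358 and imaged; IC50 and Ymax from 4-parameter logistic fit.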

[2] = molecular target: His-GST-TVMV-hRIPK1(1-324) (Homo sapiens (Human), UniProt Q13546); assay: RIPK1 HTRF Binding Assay; conditions: HTRF binding, 1 h at rt; read-out: RIPK1 (IC50)
Procedure, shortened: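 HTRF probe-displacement binding: 1 nM His-GST-TVMV-hRIPK1(1-324) (baculovirus construct), 90.6 nM probe, 0.2 nM anti-GST-Tb in 20 mM HEPES, 10 mM MgCl2, 0.015% Brij-35, 4 mM DTT, 0.05 mg/mL BSA. Incubated 1 h at rt; FRET 520/495 nm ratio, inhibition relative to DMSO-only wells.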

Chain of His-GST-TVMV-hRIPK1(1-324) (Q13546 1-324): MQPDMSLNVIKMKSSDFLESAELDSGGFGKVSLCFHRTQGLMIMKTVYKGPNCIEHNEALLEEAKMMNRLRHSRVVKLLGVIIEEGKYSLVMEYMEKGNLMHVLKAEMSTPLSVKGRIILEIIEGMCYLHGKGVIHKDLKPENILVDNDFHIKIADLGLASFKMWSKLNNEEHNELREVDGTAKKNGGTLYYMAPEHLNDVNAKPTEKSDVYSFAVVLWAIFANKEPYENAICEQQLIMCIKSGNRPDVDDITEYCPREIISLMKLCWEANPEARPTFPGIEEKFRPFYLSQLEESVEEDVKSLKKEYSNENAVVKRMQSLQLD

Row | Structure (SMILES) | IC50 [1] | IC50 [2] | IC50 ([1]; Homo sapiens)
1 | COc1ncc(-c2ccc3nc(NC(C)=O)cn3n2)cc1C(=O)NC(C)c1cc(F)cc(F)c1OCC1CC1 (stereo not shown) [Example 133, N-{1-[2-(cyclopropylmethoxy)-3,5-difluorophenyl]ethyl}-5-{2-acetamidoimidazo[1,2-b]pyridazin-6-yl}-2-methoxypyridine-3-carboxamide] | 8 nM | 23 nM | –
2 | CC(=O)Nc1cn2nc(-c3cc(F)c(C)c(C(=O)NCc4ccccc4Oc4ccccc4)c3)ccc2n1 [Example 364, 5-{2-acetamidoimidazo [1,2-b]pyridazin-6-yl}-3-fluoro-2-methyl-N-[(2-phenoxyphenyl)methyl] benzamide] | – | 7 nM | 7 nM
3 | COc1ncc(-c2ccc3nc(NC(C)=O)cn3n2)cc1C(=O)NCc1cc(F)ccc1OC1CCCC1 [Example 166, N-{[2-(cyclopentyloxy)-5-fluorophenyl]methyl}-5-{2-acetamidoimidazo[1,2-b]pyridazin-6-yl}-2-methoxypyridine-3-carboxamide] | – | 4 nM | 1 nM
4 | Cc1ncc(-c2ccc3nc(NC(=O)CN4CCN(C)CC4)cn3n2)cc1C(=O)N[C@H](C)c1cc(C(F)(F)F)ccc1F [Example 332, N-[(1R)-1-[2-fluoro-5-(trifluoromethyl)-phenyl]ethyl]-2-methyl-5-{2-[2-(4-methylpiperazin-1-yl)acetamido]imidazo[1,2-b]pyridazin-6-yl}pyridine-3-carboxamide] | – | 308 nM | 25 nM
5 | COc1ncc(-c2ccc3nc(NC(C)=O)cn3n2)cc1C(=O)NCc1ncccc1OC1CCCC1 [Example 163, N-{[3-(cyclopentyloxy)pyridin-2-yl]methyl}-5-{2-acetamidoimidazo[1,2-b]pyridazin-6-yl}-2-methoxypyridine-3-carboxamide] | – | 12 nM | 17 nM
